The values below come from ChEMBL document CHEMBL5303304, “EUbOPEN Chemogenomics Library - IncuCyte” (2023).

Each structure is given as a SMILES string.

What all share (format): toxicity, cell-based
The test system of one data set is U2OS. Description: Incucyte cell viability with U2OS. Conditions: human, 10 µM, compound concentration 10 uM.
In a further data set the test system is HEK-293T. The data set is described as follows: Incucyte cell viability with HEK293T. The following applies: human, 10 µM, compound concentration 10 uM.
The next data set relates to Fibroblast. The data set is described as follows: Incucyte cell viability with human fibroblast. Conditions: 10 µM, compound concentration 10 uM.
Also: unitless GR value; below 1 slowed growth and below 0 cell loss.

As for `Cn1nccc1-c1ccc(Sc2cccc(C3(C(N)=O)CCOCC3)c2)cc1` [PF-4191834], the “Growth Rate” value in the data set with U2OS (6 h, replicate number 1) is on record as 0.7; in the data set on U2OS (6 h, replicate number 2), 0.8; with U2OS (12 h, replicate number 2), 0.79; with U2OS (18 h, replicate number 1) it was 0.94; in the data set with U2OS (18 h, replicate number 2), 0.88; in the data set with U2OS (24 h, replicate number 1), 0.76. Also, the “Growth Rate” value is 0.93 with U2OS (24 h, replicate number 2); 0.41 in the data set with HEK-293T (0 h, replicate number 1); -0.02 in the data set with HEK-293T (6 h, replicate number 1); -0.28 in the data set with HEK-293T (6 h, replicate number 2); 0.37 with HEK-293T (12 h, replicate number 1); -0.18 in the data set on HEK-293T (12 h, replicate number 2). In addition, the “Growth Rate” value with HEK-293T (18 h, replicate number 1) was 0.29; in the data set on HEK-293T (18 h, replicate number 2) it was 0; in the data set with HEK-293T (24 h, replicate number 1), 0.31; in the data set on HEK-293T (24 h, replicate number 2) it was 0.15; in the data set on Fibroblast (0 h, replicate number 2) it was -0.66; in the data set on Fibroblast (6 h, replicate number 1), -0.12. For the same molecule, the “Growth Rate” value in the data set on Fibroblast (6 h, replicate number 2) is reported as 0.25; in the data set with Fibroblast (12 h, replicate number 1), 0; with Fibroblast (12 h, replicate number 2), 0.52; in the data set on Fibroblast (18 h, replicate number 1) it was -0.01; with Fibroblast (18 h, replicate number 2), 0.45; with Fibroblast (24 h, replicate number 1), 0.22. Further, the “Growth Rate” value in the data set on Fibroblast (24 h, replicate number 2) came to 0.46.

For `COc1c(C(=O)/C=C/c2ccccc2)c(O)c(OC)c2occc12`, the “Growth Rate” value is -0.43 with U2OS (0 h, replicate number 1); -0.14 in the data set on U2OS (0 h, replicate number 2); 0.86 in the data set with U2OS (6 h, replicate number 1); 0.76 in the data set on U2OS (6 h, replicate number 2); 0.64 in the data set with U2OS (12 h, replicate number 1); 0.6 in the data set with U2OS (12 h, replicate number 2). Moreover, the “Growth Rate” value is 0.71 in the data set with U2OS (18 h, replicate number 1); 0.55 with U2OS (18 h, replicate number 2); 0.78 with U2OS (24 h, replicate number 1); 0.83 with U2OS (24 h, replicate number 2); -0.45 with HEK-293T (6 h, replicate number 1); -0.38 in the data set with HEK-293T (6 h, replicate number 2). Further, the “Growth Rate” value is 0.27 in the data set with HEK-293T (12 h, replicate number 1); 0.28 in the data set on HEK-293T (12 h, replicate number 2); 0.86 with HEK-293T (18 h, replicate number 1); 0.53 in the data set on HEK-293T (18 h, replicate number 2); 0.75 in the data set with HEK-293T (24 h, replicate number 2); -0.26 with Fibroblast (6 h, replicate number 2). In addition, the “Growth Rate” value is listed as -0.31 with Fibroblast (12 h, replicate number 1); 0.35 in the data set with Fibroblast (12 h, replicate number 2); 0 in the data set on Fibroblast (18 h, replicate number 1); 0.84 with Fibroblast (18 h, replicate number 2); 0.86 in the data set with Fibroblast (24 h, replicate number 1); 0.71 in the data set with Fibroblast (24 h, replicate number 2).

For the molecule `CCn1cnc2c(-c3ccc(F)c(-c4ccc(S(=O)(=O)CC)cc4OC)c3)cnnc21` [DARIGABAT], the “Growth Rate” value is -0.95 in the data set on U2OS (0 h, replicate number 2); -0.92 in the data set with U2OS (6 h, replicate number 1); -0.7 with U2OS (6 h, replicate number 2); -0.49 in the data set on U2OS (12 h, replicate number 1); -0.46 in the data set on U2OS (12 h, replicate number 2); -0.16 in the data set with U2OS (18 h, replicate number 1). Besides, the “Growth Rate” value is given as -0.24 in the data set on U2OS (18 h, replicate number 2); 0.01 in the data set on U2OS (24 h, replicate number 1); -0.05 with U2OS (24 h, replicate number 2); -0.79 in the data set with HEK-293T (6 h, replicate number 1); -0.84 in the data set on HEK-293T (6 h, replicate number 2); -0.63 in the data set with HEK-293T (12 h, replicate number 1). Also, the “Growth Rate” value is -0.47 in the data set with HEK-293T (12 h, replicate number 2); -0.38 in the data set on HEK-293T (18 h, replicate number 1); -0.28 in the data set with HEK-293T (18 h, replicate number 2); -0.32 in the data set with HEK-293T (24 h, replicate number 1); -0.18 in the data set with HEK-293T (24 h, replicate number 2); -0.83 in the data set with Fibroblast (0 h, replicate number 1). Further, the “Growth Rate” value in the data set on Fibroblast (6 h, replicate number 2) is -1; in the data set with Fibroblast (12 h, replicate number 1), 1; in the data set on Fibroblast (12 h, replicate number 2), -0.93; in the data set on Fibroblast (18 h, replicate number 1) it was -0.97; in the data set on Fibroblast (18 h, replicate number 2), -0.67; in the data set with Fibroblast (24 h, replicate number 1), -0.69. Moreover, the “Growth Rate” value with Fibroblast (24 h, replicate number 2) is reported as -0.48.

Regarding `Cc1ccc(-n2nc(C(C)(C)C)cc2NC(=O)Nc2ccccc2F)cc1`, the “Growth Rate” value is listed as -0.52 in the data set with U2OS (0 h, replicate number 2); 0.9 with U2OS (6 h, replicate number 1); 0.67 in the data set on U2OS (6 h, replicate number 2); 0.91 in the data set with U2OS (12 h, replicate number 1); 0.72 with U2OS (12 h, replicate number 2); 0.79 in the data set with U2OS (18 h, replicate number 1). The “Growth Rate” value in the data set with U2OS (24 h, replicate number 1) is 0.72; with U2OS (24 h, replicate number 2) it was 0.85; in the data set with HEK-293T (0 h, replicate number 1), -0.4; in the data set with Fibroblast (6 h, replicate number 1), -0.08; in the data set on Fibroblast (6 h, replicate number 2) it was 0.02; in the data set with Fibroblast (12 h, replicate number 1), 0.68. Moreover, the “Growth Rate” value in the data set with Fibroblast (12 h, replicate number 2) is given as 0.82; in the data set with Fibroblast (18 h, replicate number 1), 0.86; with Fibroblast (24 h, replicate number 1) it was 0.91.

As for `NCCCNCCCCNCCC(=O)NCCCCCNC(=O)[C@H](CC(N)=O)NC(=O)Cc1ccc(O)cc1O` [JORO SPIDER TOXIN 3], the “Growth Rate” value is recorded as -0.97 in the data set on U2OS (0 h, replicate number 2); -0.96 in the data set with HEK-293T (0 h, replicate number 1); -1 with HEK-293T (0 h, replicate number 2); 0.16 with Fibroblast (0 h, replicate number 1); -1 with Fibroblast (0 h, replicate number 2); 0.85 in the data set with Fibroblast (18 h, replicate number 1). Moreover, the “Growth Rate” value with Fibroblast (24 h, replicate number 1) came to 0.49.

With `Cn1cc(C(=O)O)c2ccc(N3CCC(OCc4c(-c5c(Cl)cccc5Cl)noc4C4CC4)CC3)cc21` [TERN-101], the “Growth Rate” value in the data set on U2OS (0 h, replicate number 1) is -0.23; with U2OS (6 h, replicate number 1), 0.86; with U2OS (6 h, replicate number 2), -0.83; in the data set on U2OS (12 h, replicate number 1) it was 0.74; in the data set with U2OS (12 h, replicate number 2), 0.96; in the data set with U2OS (18 h, replicate number 1) it was 0.87. Besides, the “Growth Rate” value with U2OS (24 h, replicate number 1) was 0.91; with HEK-293T (6 h, replicate number 1) it was 0.97; with Fibroblast (0 h, replicate number 2), 0.89; with Fibroblast (6 h, replicate number 1), -0.66; with Fibroblast (6 h, replicate number 2), 0.73; in the data set with Fibroblast (12 h, replicate number 1) it was 0.61. For the same molecule, the “Growth Rate” value is 0.62 in the data set with Fibroblast (18 h, replicate number 1); 0.97 in the data set on Fibroblast (18 h, replicate number 2); 0.37 in the data set with Fibroblast (24 h, replicate number 1); 0.87 with Fibroblast (24 h, replicate number 2).

As for `Cn1cc(-c2ccc3occ(-c4cccc(-c5ccncc5)c4)c3n2)cn1`, the “Growth Rate” value with U2OS (0 h, replicate number 2) is given as 0.89; in the data set on U2OS (6 h, replicate number 1), -0.24; with U2OS (6 h, replicate number 2) it was 0.44; in the data set with U2OS (12 h, replicate number 1), 0.6; with U2OS (12 h, replicate number 2), 0.51; with U2OS (18 h, replicate number 1), 0.65. The “Growth Rate” value in the data set with U2OS (18 h, replicate number 2) is listed as 0.73; with U2OS (24 h, replicate number 1), 0.7; in the data set with U2OS (24 h, replicate number 2) it was 0.87; in the data set with HEK-293T (6 h, replicate number 1) it was -0.45; with HEK-293T (6 h, replicate number 2), -0.34; in the data set with HEK-293T (12 h, replicate number 1), -0.46. The “Growth Rate” value was 0 in the data set on HEK-293T (12 h, replicate number 2); -0.15 in the data set with HEK-293T (18 h, replicate number 1); 0.33 in the data set with HEK-293T (18 h, replicate number 2); 0.35 with HEK-293T (24 h, replicate number 1); 0.52 in the data set on HEK-293T (24 h, replicate number 2); 0.22 in the data set with Fibroblast (0 h, replicate number 1). Besides, the “Growth Rate” value was -0.75 with Fibroblast (6 h, replicate number 2); -0.8 in the data set with Fibroblast (12 h, replicate number 1); 0.4 in the data set on Fibroblast (12 h, replicate number 2); 0.07 with Fibroblast (18 h, replicate number 1); 0.54 with Fibroblast (18 h, replicate number 2); 0.25 with Fibroblast (24 h, replicate number 1). Besides, in the data set with Fibroblast (24 h, replicate number 2), the “Growth Rate” value was 0.73.

`Clc1cccc(-n2nnnc2NCc2ccccc2Oc2ccccn2)c1Cl`: the “Growth Rate” value is -0.04 in the data set with U2OS (0 h, replicate number 1); 0.95 in the data set with U2OS (0 h, replicate number 2); 0.99 with U2OS (6 h, replicate number 2); 0.9 in the data set with U2OS (12 h, replicate number 1); 0.96 in the data set on U2OS (18 h, replicate number 2); 0.73 in the data set with HEK-293T (0 h, replicate number 1). In addition, the “Growth Rate” value with HEK-293T (0 h, replicate number 2) is listed as 0.49; in the data set with Fibroblast (0 h, replicate number 1), 0.89; in the data set with Fibroblast (0 h, replicate number 2) it was 0.26; with Fibroblast (6 h, replicate number 2), -0.47; in the data set with Fibroblast (12 h, replicate number 2) it was 0.89; with Fibroblast (18 h, replicate number 1), 0.74. Also, in the data set on Fibroblast (24 h, replicate number 1), the “Growth Rate” value is 0.

Consider `COCc1nc2cnc3cc(-c4c(C)noc4C)c(OC[C@H]4CCNC4)cc3c2n1[C@H](C)c1ccccc1` [GSK778], for which the “Growth Rate” value with U2OS (0 h, replicate number 1) is 0.09; in the data set on U2OS (0 h, replicate number 2), -1; with U2OS (6 h, replicate number 1) it was 0.78; in the data set with U2OS (6 h, replicate number 2), -0.84; in the data set with U2OS (12 h, replicate number 1) it was -0.64; with U2OS (12 h, replicate number 2), 0.73. In addition, the “Growth Rate” value in the data set with U2OS (18 h, replicate number 2) was 0.74; with U2OS (24 h, replicate number 1), 1; in the data set on U2OS (24 h, replicate number 2) it was 0.7; with HEK-293T (0 h, replicate number 2), 0.24; in the data set on Fibroblast (6 h, replicate number 1) it was 0.26; in the data set on Fibroblast (6 h, replicate number 2), -0.01. Moreover, the “Growth Rate” value is given as 0.63 in the data set on Fibroblast (12 h, replicate number 1); 0.65 in the data set on Fibroblast (12 h, replicate number 2); 0.73 with Fibroblast (18 h, replicate number 1); 0.98 with Fibroblast (24 h, replicate number 1).

Take `CCC(=O)N[C@@H]1CC[C@H](C(=O)N(C)c2ccc(-c3nc4ccccc4o3)cc2)C1` [BI 99990]: the “Growth Rate” value in the data set on U2OS (6 h, replicate number 1) is 0.62; with U2OS (6 h, replicate number 2), 0.78; in the data set with U2OS (12 h, replicate number 1), 0.58; in the data set with U2OS (12 h, replicate number 2) it was 0.64; in the data set on U2OS (24 h, replicate number 1) it was 0.96; in the data set with HEK-293T (6 h, replicate number 1), -0.34. Also, the “Growth Rate” value with HEK-293T (6 h, replicate number 2) is 0.12; in the data set with HEK-293T (12 h, replicate number 1), 0.47; in the data set with HEK-293T (12 h, replicate number 2), 0.49; with HEK-293T (18 h, replicate number 1), 0.8; in the data set with HEK-293T (18 h, replicate number 2), 0.66; in the data set with HEK-293T (24 h, replicate number 1) it was 0.82. Also, the “Growth Rate” value with HEK-293T (24 h, replicate number 2) stood at 0.8; with Fibroblast (24 h, replicate number 1), 0.79; in the data set with Fibroblast (24 h, replicate number 2) it was 0.81.
